Measured values reported in patent US20230045421A1 (priority 2018, published 2023).
pEC50: −log10 of the molar value. Read-outs that look alike come from different tables or passages of the source.

Test system: HBV rcDNA
Assay: HepDE19 assay with bDNA quantitation of HBV rcDNA
Type: cell-based, hepatitis B virus
Settings: inhibition of formation of rcDNA, read-out: DE-19bDNA EC50
In short: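 HepDE19 cells (HepG2-derived, Tet-regulated HBV replication) were deprived of tetracycline and then exposed to compounds for 7 days at 37 °C in 0.5% DMSO, 8-point titration from 25 μM. rcDNA was quantified by bDNA and EC50/EC90 came from 4-parameter fits. CC50 was measured by CellTiter-Glo ATP content on replicate plates after 4 days.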

Row | SMILES | pEC50 (HepDE19 assay) | pEC50 (Hepatitis B virus, HepDE19, HepDE19 assay)
1 | CC(c1c[nH]c(=O)c2ccccc12)N(CC1CCCC1)C(=O)Nc1ccc(F)c(Cl)c1 (single isomer, unassigned) [Compound 193, 3-(3-Chloro-4-fluorophenyl)-1-(cyclopentylmethyl)-1-(1-(1-oxo-1,2-dihydroisoquinolin-4-yl)ethyl)urea] | 8.00 | 
2 | CC(c1c[nH]c(=O)c2ccccc12)N(CC1CCCCC1)C(=O)Nc1ccc(F)c(Cl)c1 (single isomer, unassigned) [Compound 194, 3-(3-Chloro-4-fluorophenyl)-1-(cyclohexylmethyl)-1-(1-(1-oxo-1,2-dihydroisoquinolin-4-yl)ethyl)urea] | 6.02 | 
3 | CC(c1c[nH]c(=O)c2ccccc12)N(CC1CCCCC1)C(=O)Nc1ccc(F)c(Cl)c1 (single isomer, unassigned) [Compound 195, 3-(3-Chloro-4-fluorophenyl)-1-(cyclohexylmethyl)-1-(1-(1-oxo-1,2-dihydroisoquinolin-4-yl)ethyl)urea] | 7.52 | 
4 | CC(c1c[nH]c(=O)c2ccccc12)N(CCO)C(=O)Nc1ccc(F)c(Cl)c1 (single isomer, unassigned) [Compound 196, 3-(3-Chloro-4-fluorophenyl)-1-(2-hydroxyethyl)-1-(1-(1-oxo-1,2-dihydroisoquinolin-4-yl)ethyl)urea] | 4.70 | 
5 | CC(c1c[nH]c(=O)c2ccccc12)N(CCO)C(=O)Nc1ccc(F)c(Cl)c1 (single isomer, unassigned) [Compound 197, 3-(3-Chloro-4-fluorophenyl)-1-(2-hydroxyethyl)-1-(1-(1-oxo-1,2-dihydroisoquinolin-4-yl)ethyl)urea] | 7.10 | 
6 | CC(c1c[nH]c(=O)c2ccccc12)N(CCNCC(F)F)C(=O)Nc1ccc(F)c(Cl)c1 (single isomer, unassigned) [Compound 198, 3-(3-Chloro-4-fluorophenyl)-1-(2-((2,2-difluoroethyl)amino)ethyl)-1-(1-(1-oxo-1,2-dihydroisoquinolin-4-yl)ethyl)urea] | 4.92 | 
7 | CC(c1c[nH]c(=O)c2ccccc12)N(CCNCC(F)F)C(=O)Nc1ccc(F)c(Cl)c1 (single isomer, unassigned) [Compound 199, 3-(3-Chloro-4-fluorophenyl)-1-(2-((2,2-difluoroethyl)amino)ethyl)-1-(1-(1-oxo-1,2-dihydroisoquinolin-4-yl)ethyl)urea] | 5.66 | 
8 | COCCCn1cc(C(C)N(C)C(=O)Nc2ccc(F)c(Cl)c2)c2ccccc2c1=O (single isomer, unassigned) [Compound 200, 3-(3-Chloro-4-fluorophenyl)-1-(1-(2-(3-methoxypropyl)-1-oxo-1,2-dihydroisoquinolin-4-yl)ethyl)-1-methylurea] |  | 6.40
9 | CC(=O)N1CCC(CN(C(=O)Nc2ccc(F)c(Cl)c2)C(C)c2c[nH]c(=O)c3ccccc23)CC1 (single isomer, unassigned) [Compound 201, 1-((1-Acetylpiperidin-4-yl)methyl)-3-(3-chloro-4-fluorophenyl)-1-(1-(1-oxo-1,2-dihydroisoquinolin-4-yl)ethyl)urea] | 6.66 | 
10 | CC(=O)N1CCC(CN(C(=O)Nc2ccc(F)c(Cl)c2)C(C)c2c[nH]c(=O)c3ccccc23)CC1 (single isomer, unassigned) [Compound 202, 1-((1-Acetylpiperidin-4-yl)methyl)-3-(3-chloro-4-fluorophenyl)-1-(1-(1-oxo-1,2-dihydroisoquinolin-4-yl)ethyl)urea] | 5.14 | 
11 | CC(c1c[nH]c(=O)c2ccccc12)N(CC1CCN(S(C)(=O)=O)CC1)C(=O)Nc1ccc(F)c(Cl)c1 (single isomer, unassigned) [Compound 203, 3-(3-Chloro-4-fluorophenyl)-1-((1-(methylsulfonyl)piperidin-4-yl)methyl)-1-(1-(1-oxo-1,2-dihydroisoquinolin-4-yl)ethyl)urea] | 4.98 | 
